In ChEMBL document CHEMBL1147126, “Habbemines A and B, pyrrolidine alkaloids with human delta-opioid receptor binding affinity from the leaves of Elaeocarpus habbemensis” (J Nat Prod, 2007) one finds IC50 data, which are given here for 2 molecules.

This experiment addresses Delta-type opioid receptor (Homo sapiens, UniProt P41143). The experiment in a line: Displacement of [125I]deltorphin 2 from human recombinant delta opioid receptor expressed in HEK cell membrane. Type of experiment: cell membranes, HEK293. A general note: In a radioligand displacement assay an active substance lowers the binding of a labelled ligand.

Delta-type opioid receptor, sequence (P41143 whole entry): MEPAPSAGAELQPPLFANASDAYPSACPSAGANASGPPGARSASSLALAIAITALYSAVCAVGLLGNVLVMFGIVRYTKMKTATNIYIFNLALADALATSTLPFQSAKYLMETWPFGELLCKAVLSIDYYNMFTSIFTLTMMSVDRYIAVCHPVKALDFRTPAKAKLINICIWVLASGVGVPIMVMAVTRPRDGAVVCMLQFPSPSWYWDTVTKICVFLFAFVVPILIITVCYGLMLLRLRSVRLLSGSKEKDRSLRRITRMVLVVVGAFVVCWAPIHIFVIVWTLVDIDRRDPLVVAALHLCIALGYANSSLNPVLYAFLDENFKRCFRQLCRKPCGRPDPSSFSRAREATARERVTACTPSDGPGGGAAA

For `C[C@H]1CC=CC(=O)[C@@H]1C(=O)C[C@@H]1CCCN1CCCO` [HABBEMINES A], the IC50 – broadly, the concentration that inhibits the measured activity by half – came to 32.1 µM.
With `C[C@H]1CC=CC(=O)[C@@H]1C(=O)C[C@H]1CCCN1CCCO` [HABBEMINES B] the figure was 32.1 µM.
